From the supplement of paper PMC10307832

Assays:
Assay in all cases: relative viability (nuclei count vs DMSO), 5 days (fraction); higher = more cells survive
[1] = compound: CN(C)CC1=CC(=CC=C1)N=C(C2=CC=CC=C2)C3=C(NC4=C3C=CC(=C4)C(=O)N(C)C)O + O=C(c1cc(Cc2n[nH]c(=O)c3ccccc23)ccc1F)N1CCN(C(=O)C2CC2)CC1 [Olaparib] (partner 8 µM)
In short: (§1)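 Dosing by pin tool came one day after lung cancer cell lines were seeded in 1536-well plates, using either one drug or a fixed anchor-drug dose plus five library-drug doses (not always all listed) in √10 steps. After 5 days, nuclei were counted on 4× images. Relative viability is treated-well nuclei count divided by vehicle-well nuclei count, and values are medians of duplicate plates.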

[2] = compound: CN(C)CC1=CC(=CC=C1)N=C(C2=CC=CC=C2)C3=C(NC4=C3C=CC(=C4)C(=O)N(C)C)O + Nc1nc2[nH]cc(CCc3ccc(C(=O)N[C@@H](CCC(=O)O)C(=O)O)cc3)c2c(=O)[nH]1 [Pemetrexed] (partner 0.2 µM)
In short: as §1

[3] = compound: CN(C)CC1=CC(=CC=C1)N=C(C2=CC=CC=C2)C3=C(NC4=C3C=CC(=C4)C(=O)N(C)C)O + CC(C)C[C@H](NC(=O)[C@H](Cc1ccccc1)NC(=O)c1cnccn1)B(O)O [Bortezomib] (partner 0.002 µM)
In short: as §1

[4] = compound: CN(C)CC1=CC(=CC=C1)N=C(C2=CC=CC=C2)C3=C(NC4=C3C=CC(=C4)C(=O)N(C)C)O + Cc1nc(NC(=O)N2CCC[C@H]2C(N)=O)sc1-c1ccnc(C(C)(C)C(F)(F)F)c1 [Alpelisib] (partner 2 µM)
In short: as §1

| Cell Line | relative viability ([1]; first compound 0.08 µM) | relative viability ([1]; first compound 0.253 µM) | relative viability ([1]; first compound 0.8 µM) | relative viability ([1]; first compound 2.53 µM) | relative viability ([1]; first compound 8 µM) | relative viability ([2]; first compound 0.08 µM) | relative viability ([2]; first compound 0.253 µM) | relative viability ([2]; first compound 0.8 µM) | relative viability ([2]; first compound 2.53 µM) | relative viability ([2]; first compound 8 µM) | relative viability ([3]; first compound 0.08 µM) | relative viability ([3]; first compound 0.253 µM) | relative viability ([3]; first compound 0.8 µM) | relative viability ([3]; first compound 2.53 µM) | relative viability ([3]; first compound 8 µM) | relative viability ([4]; first compound 0.08 µM) | relative viability ([4]; first compound 0.253 µM) | relative viability ([4]; first compound 0.8 µM) | relative viability ([4]; first compound 2.53 µM) | relative viability ([4]; first compound 8 µM) |
| --- | --- | --- | --- | --- | --- | --- | --- | --- | --- | --- | --- | --- | --- | --- | --- | --- | --- | --- | --- | --- |
| HARA | 0.622 | 1.03 | 0.762 | 0.758 | 0.967 | 0.214 | 0.234 | 0.203 | 0.291 | 0.228 | 1.06 | 1.1 | 1.06 | 1.02 | 1.05 | 0.79 | 0.824 | 0.715 | 0.788 | 0.713 |
| HCC-15 | 0.681 | 0.737 | 0.798 | 0.561 | 0.785 | 0.232 | 0.22 | 0.208 | 0.235 | 0.226 | 0.984 | 0.956 | 1.08 | 1.03 | 1.12 | 0.947 | 0.802 | 0.927 | 0.937 | 0.954 |
| HCC-44 | 0.975 | 0.995 | 0.967 | 0.904 | 1.04 | 0.691 | 0.583 | 0.693 | 0.598 | 0.716 | 0.913 | 0.872 | 0.875 | 0.803 | 0.948 | 0.787 | 0.736 | 0.768 | 0.766 | 0.77 |
| IA-LM | 0.941 | 0.793 | 1.02 | 0.957 | 0.962 | – | – | – | – | – | – | 0.876 | 1.12 | 1.06 | 1.11 | – | 0.806 | 0.942 | 0.88 | 1.03 |
| LK-2 | 0.901 | 0.653 | 0.572 | 0.679 | 0.489 | 0.286 | 0.253 | 0.236 | 0.269 | 0.211 | – | – | – | – | – | 1.2 | 0.924 | 0.897 | 0.928 | 0.881 |
| NCI-H358 | 0.598 | 0.661 | 0.546 | 0.527 | 0.528 | 0.176 | 0.173 | 0.165 | 0.164 | 0.175 | – | – | – | – | – | 0.743 | 0.814 | 0.766 | 0.718 | 0.606 |
| NCI-H522 | 0.573 | 0.663 | 0.545 | 0.713 | 0.622 | 1.03 | 1.04 | 0.763 | 1.07 | 0.817 | – | – | – | – | – | – | – | – | – | – |
| NCI-H727 | – | 0.697 | 0.672 | 0.672 | 0.86 | – | – | – | – | – | 0.872 | 0.764 | 0.786 | 0.739 | 0.764 | 0.631 | 0.564 | 0.621 | 0.603 | 0.608 |
| NCI-H1395 | 0.499 | 0.445 | 0.416 | 0.492 | 0.448 | 0.915 | 0.931 | 0.992 | 0.763 | 0.834 | – | – | – | – | – | 1.04 | 0.948 | 1.1 | 0.87 | 0.964 |
| NCI-H1563 | – | – | – | – | – | 0.829 | 0.665 | 0.782 | 0.741 | 0.698 | 0.868 | 0.921 | 0.729 | 0.755 | 0.737 | 1.03 | 1.03 | 0.956 | 0.875 | 0.847 |
| NCI-H1648 | 0.867 | 0.72 | – | 0.709 | 1.28 | 0.717 | 0.758 | – | 0.739 | 0.668 | – | – | – | – | – | – | – | – | – | – |
| NCI-H1650 | 0.821 | 0.787 | 0.753 | 0.937 | 0.75 | 0.34 | 0.353 | 0.344 | 0.373 | 0.39 | 0.181 | 0.22 | 0.231 | 0.202 | 0.222 | – | – | – | – | – |
| NCI-H1703 | 0.375 | 0.559 | 0.39 | 0.199 | 0.214 | – | – | – | – | – | 0.311 | 0.307 | 0.377 | 0.29 | 0.207 | 0.354 | 0.282 | 0.41 | 0.22 | 0.184 |
| NCI-H1793 | 0.924 | 0.774 | 0.678 | 0.95 | 0.758 | 0.901 | 0.872 | 0.553 | 0.791 | 0.823 | – | – | – | – | – | 0.633 | 0.886 | 0.58 | 0.812 | 0.814 |
| NCI-H1944 | 0.424 | 0.389 | 0.373 | 0.42 | 0.377 | 0.607 | 0.571 | 0.615 | 0.512 | 0.537 | – | – | – | – | – | 0.828 | 0.799 | 0.748 | 0.826 | 0.783 |
| NCI-H2170 | 0.672 | 0.552 | 0.491 | 0.535 | 0.554 | 0.245 | 0.281 | 0.29 | 0.264 | 0.271 | – | – | – | – | – | 0.809 | 0.827 | 0.514 | 0.714 | 0.578 |
| NCI-H2342 | 0.453 | 0.454 | 0.506 | 0.476 | 0.561 | 0.763 | 0.762 | 0.829 | 0.836 | 0.778 | – | – | – | – | – | – | – | – | – | – |
| SK-MES-1 | 0.634 | 0.698 | 0.588 | 0.629 | 0.522 | 0.961 | 0.881 | 1 | 0.89 | 0.897 | – | – | – | – | – | 0.876 | 0.883 | 0.716 | 0.851 | 0.875 |
